Key:
Test in all cases: competitive isoTOP-ABPP
Assay type in all cases: binding
[1] = target: T1, RINT1 RAD50-interacting protein 1 (Homo sapiens, UniProt Q6NUQ1); details: 50 uM, in vitro; for isoTOP-ABPP ratio (R) at liganded lysine Q6NUQ1_K771: sol, 231
T1 construct: isoTOP-ABPP experiments performed in cell lysates (in vitro); endogenous in cells; host or cells: soluble proteome of human cancer cell lines (MDA-MB-231; Ramos and Jurkat also prepared)
Outline: (§1)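 Probe: STP-alkyne, 0.1 mM, 1 h RT, after fragment pretreatment of lysate (esters 50 μM; guanidinylators 100 μM). Tags: light = compound, heavy = DMSO, via CuAAC. Replicates averaged if SD <60% of mean; otherwise lowest ratio used when any R <4.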

[2] = target: T2, ADK Adenosine kinase (Homo sapiens, UniProt P55263); parameters: key to isoTOP-ABPP reactivity ratio at lysine P55263_K88: R = MS1 peak area ratio, DMSO (heavy) / compound-treated (light); details: 50 uM, in vitro; for isoTOP-ABPP ratio (R) at liganded lysine P55263_K88: sol, 231
T2 construct: isoTOP-ABPP experiments performed in cell lysates (in vitro); endogenous in cells; host or cells: soluble proteome of human cancer cell lines (MDA-MB-231, Ramos, Jurkat)
T2 sequence (P55263 whole entry): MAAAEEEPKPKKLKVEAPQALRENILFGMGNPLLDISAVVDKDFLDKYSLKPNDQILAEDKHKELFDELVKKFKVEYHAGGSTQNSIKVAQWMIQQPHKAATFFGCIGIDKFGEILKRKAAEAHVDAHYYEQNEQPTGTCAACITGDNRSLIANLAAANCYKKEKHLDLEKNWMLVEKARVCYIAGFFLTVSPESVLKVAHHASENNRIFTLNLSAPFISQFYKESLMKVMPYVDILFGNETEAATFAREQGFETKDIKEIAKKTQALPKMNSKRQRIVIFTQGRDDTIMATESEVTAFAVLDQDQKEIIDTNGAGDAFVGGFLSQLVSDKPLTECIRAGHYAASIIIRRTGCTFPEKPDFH
Experimental: (§2) In vitro covalent fragment treatment for isoTOP-ABPP. All compounds were made up as solutions in DMSO (100×) and were used at a final concentration of 50 μM for activated esters and 100 μM for guanidinylating agents. For each profiling sample, 0.5 ml of lysate was treated with 5 μl of the 100× compound stock solution or 5 μl of DMSO. Samples were treated with activated esters for
(§3) STP-alkyne labeling and click chemistry. For concentration-dependent reactivity measurements by isoTOP-ABPP, 0.5 ml proteome aliquots were treated at ambient temperature with 1 mM STP-alkyne 1 (5 μl of 100 mM stock in DMSO) and 0.1 mM STP alkyne 1 (5 μl of 10 mM stock in DMSO), respectively. For competitive isoTOP-ABPP, after in vitro fragment treatment (detailed above), the samples were labeled for 1 h at ambient temperature with 0.1 mM STP-alkyne 1 (5 μl of 10 mM stock in DMSO). Samples were conjugated by copper-mediated azide-alkyne cycloaddition (CuAAC) to either the light (1 mM STP-alkyne or fragment treated) or heavy (0.1 mM STP-alkyne or DMSO treated) TEV tags (10 μl of 5 mM stocks in DMSO, final concentration=100 μM) using tris(2-carboxyethyl)phosphine hydrochloride
(§4) R value calculation and processing. The ratios of light and heavy MS1 peaks for each unique peptide were quantified with a CIMAGE software using default parameters (3 MS1 acquisitions per peak and signal to noise threshold set to 2.5). For reactivity measurements by isoTOP-ABPP, the R value was calculated from the ratio of MS1 peak areas, comparing the 1 mM STP alkyne sample (light TEV tag) with the 0.1 mM STP alkyne sample (heavy TEV tag). For competitive isoTOP-ABPP, the R value was calculated from the ratio of MS1 peak areas, comparing the DMSO treated sample (heavy TEV tag) with the compound treated sample (light TEV tag). […] Ratios for unique peptide entries are calculated for each experiment; overlapping peptides with the same modified lysine (for example, different charge states, MudPIT chromatographic steps or tryptic termini) are grouped together and the median ratio is reported as the final ratio (R). The peptide ratios reported by CIMAGE were further filtered to ensure the removal or correction of low-quality ratios in each individual data set. The quality filters applied were the following: removal of half tryptic peptides; for ratios with high standard deviations from the median (90% of the median or above) the lowest ratio was taken instead of the median; removal of peptides with R=20 and only a single MS2 event triggered during the elution of the parent ion; manual annotation of all the peptides with ratios of 20, removing any peptides with low quality elution profiles that remained after the previous curation steps (only done for competitive isoTOP-ABPP).
(§5) Cross-data processing for fragment screening. For compound treated samples, biological replicates of the same condition were averaged, if the standard deviation was below 60% of the mean; otherwise, for lysines with at least one R value <4 for a particular compound, the lowest value of the ratio set was taken. For lysines, where all R values for a particular compound were ≥4, the average was reported. For peptides containing several possible modified lysines, the lysine with the highest number of quantification events was used for analysis and the remaining, redundant peptides were reported as alternative modification sites. Peptides included in the aggregate dataset (those used for further bioinformatics and statistical analyses) were required to have been quantified in 2 experiments for competitive isoTOP-ABPP. Lysines were categorized as liganded, if they had at least one ratio R≥4 (hit fragments). For liganded lysines with R=20 for all liganding events, lysines were required to have been quantified with R=20 in two separate experiments and were further required to have been quantified with R<20 in one additional experiment.

[3] = target: T3, ECH1 Delta(3,5)-Delta(2,4)-dienoyl-CoA isomerase, mitochondrial (Homo sapiens, UniProt Q13011); details: 50 uM, in vitro; for isoTOP-ABPP ratio (R) at liganded lysine Q13011_K112: sol, 231
T3 construct: isoTOP-ABPP experiments performed in cell lysates (in vitro); endogenous in cells; host or cells: soluble proteome of human cancer cell lines (MDA-MB-231, Ramos, Jurkat)
T3 sequence (Q13011 34-328): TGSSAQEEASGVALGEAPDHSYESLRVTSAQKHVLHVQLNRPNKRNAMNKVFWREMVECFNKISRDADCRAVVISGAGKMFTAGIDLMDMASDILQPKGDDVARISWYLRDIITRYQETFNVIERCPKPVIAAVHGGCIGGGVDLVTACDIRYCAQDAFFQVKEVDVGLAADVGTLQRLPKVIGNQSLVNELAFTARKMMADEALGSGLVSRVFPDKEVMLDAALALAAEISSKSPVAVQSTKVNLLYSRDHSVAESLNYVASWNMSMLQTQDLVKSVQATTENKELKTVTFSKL
Experimental: as §2, §3, §4, §5

[4] = target: T4, ISOC2 Isochorismatase domain-containing protein 2, mitochondrial (Homo sapiens, UniProt Q96AB3); details: 50 uM, in vitro; for isoTOP-ABPP ratio (R) at liganded lysine Q96AB3_K178: sol, 231
T4 construct: isoTOP-ABPP experiments performed in cell lysates (in vitro); endogenous in cells; host or cells: soluble proteome of human cancer cell lines (MDA-MB-231; Ramos and Jurkat also prepared)
T4 sequence (Q96AB3 1-205): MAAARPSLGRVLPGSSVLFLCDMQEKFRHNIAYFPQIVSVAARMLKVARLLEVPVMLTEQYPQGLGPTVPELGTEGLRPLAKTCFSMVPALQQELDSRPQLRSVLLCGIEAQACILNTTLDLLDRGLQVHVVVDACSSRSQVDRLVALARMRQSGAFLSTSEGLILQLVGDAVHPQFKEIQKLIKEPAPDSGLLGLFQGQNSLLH
Experimental: as §2, §3, §4, §5

[5] = target: T5, TRMT10C Mitochondrial ribonuclease P protein 1 (Homo sapiens, UniProt Q7L0Y3); details: 50 uM, in vitro; for isoTOP-ABPP ratio (R) at liganded lysine Q7L0Y3_K325: sol, 231
T5 construct: isoTOP-ABPP experiments performed in cell lysates (in vitro); endogenous in cells; host or cells: soluble proteome of human cancer cell lines (MDA-MB-231; Ramos and Jurkat also prepared)
T5 sequence (Q7L0Y3 40-403): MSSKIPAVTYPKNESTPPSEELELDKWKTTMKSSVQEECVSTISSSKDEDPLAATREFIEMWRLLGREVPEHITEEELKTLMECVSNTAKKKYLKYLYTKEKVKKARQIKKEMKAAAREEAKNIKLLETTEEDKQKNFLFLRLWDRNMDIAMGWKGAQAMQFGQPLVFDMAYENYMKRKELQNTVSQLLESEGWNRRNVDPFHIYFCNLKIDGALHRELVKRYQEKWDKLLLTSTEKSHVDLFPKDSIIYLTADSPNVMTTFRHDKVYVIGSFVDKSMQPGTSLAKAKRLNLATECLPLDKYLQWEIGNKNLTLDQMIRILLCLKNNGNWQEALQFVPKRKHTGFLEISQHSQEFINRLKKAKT
Outline: as §1

T1 sequence (Q6NUQ1 whole entry): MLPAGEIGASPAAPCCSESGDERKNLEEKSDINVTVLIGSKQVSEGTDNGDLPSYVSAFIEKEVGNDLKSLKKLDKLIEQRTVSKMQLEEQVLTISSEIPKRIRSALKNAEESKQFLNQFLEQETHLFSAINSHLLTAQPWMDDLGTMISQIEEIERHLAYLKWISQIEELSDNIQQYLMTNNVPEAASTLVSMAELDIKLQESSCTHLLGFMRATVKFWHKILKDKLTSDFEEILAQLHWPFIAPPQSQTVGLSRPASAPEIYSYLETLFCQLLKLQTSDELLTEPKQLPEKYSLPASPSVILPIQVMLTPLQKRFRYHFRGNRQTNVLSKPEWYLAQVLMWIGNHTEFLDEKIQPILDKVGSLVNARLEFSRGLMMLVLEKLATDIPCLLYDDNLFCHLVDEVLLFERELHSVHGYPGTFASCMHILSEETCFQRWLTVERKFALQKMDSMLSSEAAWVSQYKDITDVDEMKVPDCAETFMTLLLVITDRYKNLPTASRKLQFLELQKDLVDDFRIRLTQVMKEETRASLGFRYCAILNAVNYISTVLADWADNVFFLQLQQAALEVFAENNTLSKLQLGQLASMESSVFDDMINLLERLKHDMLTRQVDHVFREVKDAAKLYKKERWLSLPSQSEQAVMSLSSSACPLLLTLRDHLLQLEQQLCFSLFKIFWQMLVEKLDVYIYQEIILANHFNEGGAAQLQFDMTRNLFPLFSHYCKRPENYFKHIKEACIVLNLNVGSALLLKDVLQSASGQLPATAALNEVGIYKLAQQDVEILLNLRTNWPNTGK

Row | SMILES | isoTOP-ABPP ratio (R) at liganded lysine Q6NUQ1_K771 [1] | isoTOP-ABPP ratio (R) at liganded lysine P55263_K88 [2] | isoTOP-ABPP ratio (R) at liganded lysine Q13011_K112 [3] | isoTOP-ABPP ratio (R) at liganded lysine Q96AB3_K178 [4] | isoTOP-ABPP ratio (R) at liganded lysine Q7L0Y3_K325 [5] | isoTOP-ABPP reactivity ratio at lysine Q6NUQ1_K771 ([1]; 231 sol) | isoTOP-ABPP reactivity ratio at lysine P55263_K88 ([2]; 231 sol) | R value (DMSO/fragment) for probe 1 labeling ([1]; Q6NUQ1_K771, 231 sol) | R value (DMSO/fragment) for probe 1 labeling ([5]; Q7L0Y3_K325, 231 sol) | R value (DMSO/fragment) for probe 1 labeling ([2]; P55263_K88, 231 sol) | R value (DMSO/fragment) for probe 1 labeling ([3]; Q13011_K112, 231 sol) | R value (DMSO/fragment) for probe 1 labeling ([4]; Q96AB3_K178, 231 sol)
1 | O=C(CCc1coc2cc(F)ccc2c1=O)Oc1ccc([N+](=O)[O-])cc1[N+](=O)[O-] [fragment 36, 2,4-Dinitrophenyl 3-(7-fluoro-4-oxo-4H-chromen-3-yl)propanoate] | 0.9 | 20.0 | 1.3 | 1.7 | – | – | – | – | – | – | – | –
2 | O=C(Oc1ccc([N+](=O)[O-])cc1[N+](=O)[O-])C(c1ccccc1)(c1ccccc1)c1ccccc1 [fragment 42, 2,4-Dinitrophenyl 2,2,2-triphenylacetate] | 1.1 | 1.0 | 1.0 | 1.0 | 1.0 | – | – | – | – | – | – | –
3 | O=C(CCc1coc2cc(F)ccc2c1=O)Oc1c(F)c(F)c(F)c(F)c1F [fragment 26, Pentafluorophenyl 3-(7-fluoro-4-oxo-4H-chromen-3-yl)propanoate] | – | – | – | – | – | 0.9 | 0.9 | – | – | – | – | –
4 | O=C(Oc1ccc([N+](=O)[O-])cc1[N+](=O)[O-])c1ccccc1Nc1cccc(C(F)(F)F)c1 [fragment 40, 2,4-Dinitrophenyl 2-((3-(trifluoromethyl)phenyl)amino)benzoate] | 1.1 | 0.9 | 1.0 | 0.9 | 0.9 | – | – | – | – | – | – | –
5 | O=C(Oc1ccc([N+](=O)[O-])cc1[N+](=O)[O-])C1CCN(C(=O)OCc2ccccc2)CC1 [fragment 34, 1-Benzyl 4-(2,4-dinitrophenyl) piperidine-1,4-dicarboxylate] | 1.3 | 20.0 | 1.1 | 1.1 | 1.0 | – | – | – | – | – | – | –
6 | Cn1cc(CC(=O)Oc2c(F)c(F)c(F)c(F)c2F)c2ccccc21 [fragment 22, Pentafluorophenyl 2-(1-methyl-1H-indol-3-yl)acetate] | – | – | – | – | – | – | – | 1.0 | 1.1 | 1.0 | 1.5 | 1.0
